The values below come from ChEMBL document CHEMBL1201862, “PubChem BioAssay data set” (2004).

Some test systems named below: EKVX; RXF 393; SF-268; IGROV-1; A549; NCI-H522; SK-OV-3; HOP-92; COLO 205; SF-539; HCT-15; SW-620; NCI-H226; SK-MEL-28; HL-60; MCF7.
Holding throughout (test): NCI-60 cell line screen, 48 h

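How tested: cells in 96-well plates exposed to compound for 48 hours at five concentrations. The concentration for 50% growth inhibition is given as GI50.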 Activity calls are given as the source filed them. No stated cut-off is given here; in the data, active = GI50 up to about 1.1 µM and inactive = higher. A value given as a limit tells only on which side of the number the result lay.

As for `CN1C(=O)c2ccc3ccccc3c2C1=O`, the GI50 with EKVX is 14 µM (inactive); in the test on RXF 393, 30.8 µM (inactive); with SF-268, > 100 µM (inactive); in the test with IGROV-1 it was > 100 µM (inactive); with A549, > 100 µM (inactive); in the test with NCI-H522, 86.1 µM (inactive). Moreover, the GI50 in the test with SK-OV-3 was > 100 µM (inactive); in the test on HOP-92, 98.6 µM (inactive); in the test on COLO 205, > 100 µM (inactive); in the test on SF-539, > 100 µM (inactive); in the test on HCT-15, above 100 µM; with SW-620, > 100 µM (inactive). The GI50 in the test with NCI-H226 was > 100 µM (inactive); in the test with SK-MEL-28, > 100 µM (inactive); with HL-60 it was 28.1 µM (inactive); in the test with MCF7, > 100 µM (inactive).
Consider `COc1nc2c(c(=O)n1C)N(C(C)=O)C1C(N2)OCC(OC(C)=O)C1OC(C)=O` (stereo not drawn), for which the GI50 in the test on EKVX, in the test with RXF 393, in the test with SF-268, with IGROV-1, in the test on A549 and in the test with NCI-H522 was > 10 µM (inactive) throughout. The GI50 in the test on SK-OV-3 was > 10 µM (inactive); in the test with HOP-92, > 10 µM (inactive); with COLO 205, > 10 µM (inactive); in the test with SF-539 it was > 10 µM (inactive); with HCT-15 it was above 10 µM; with SW-620 it was > 10 µM (inactive). The GI50 in the test with NCI-H226, with SK-MEL-28, in the test with HL-60 and in the test with MCF7 was > 10 µM (inactive) throughout.
As to `CSC1(SC)CCCCCCCCCCC1`, the GI50 in the test with EKVX is 39 µM (inactive); with RXF 393 it was 25 µM (inactive); with SF-268, 53.7 µM (inactive); in the test with IGROV-1, 41.8 µM (inactive); in the test on A549 it was 31.6 µM (inactive); in the test on NCI-H522 it was 16.3 µM (inactive). In addition, the GI50 in the test with SK-OV-3 was 83.9 µM (inactive); in the test on HOP-92, 36.8 µM (inactive); in the test with COLO 205, 19.2 µM (inactive); in the test with SF-539, > 100 µM (inactive); in the test with HCT-15, 48.1 µM; with SW-620, 44.6 µM (inactive). For the same molecule, the GI50 is > 100 µM (inactive) in the test with NCI-H226, 44.9 µM (inactive) in the test on SK-MEL-28, 46.3 µM (inactive) with HL-60 and 21.3 µM (inactive) with MCF7.
Consider `O=C([O-])C(O)C(O)C(O)C(O)C(=O)O.[K+]` (stereo not drawn), for which the GI50 in the test with EKVX, in the test with RXF 393, with SF-268, in the test on IGROV-1, in the test with A549 and in the test on NCI-H522 was > 100 µM (inactive) each time. Moreover, the GI50 in the test with SK-OV-3 was > 100 µM (inactive); in the test on HOP-92 it was > 100 µM (inactive); with COLO 205, > 100 µM (inactive); in the test with SF-539, > 100 µM (inactive); in the test on HCT-15 it was above 100 µM; in the test with SW-620, > 100 µM (inactive). Further, the GI50 was > 100 µM (inactive) in the test on NCI-H226, > 100 µM (inactive) in the test on SK-MEL-28, 76.2 µM (inactive) in the test with HL-60 and > 100 µM (inactive) in the test on MCF7.
As for `COc1ccc([C@H]2CC(=O)C[C@H](c3ccc(OC)cc3)C23C(=O)c2ccccc2C3=O)cc1`, the GI50 was 4.59 µM (inactive) in the test on EKVX; 2.92 µM (inactive) with RXF 393; 6.76 µM (inactive) in the test on SF-268; 5.28 µM (inactive) in the test on IGROV-1; 5.97 µM (inactive) in the test with A549; 3.16 µM (inactive) in the test on NCI-H522. For the same molecule, the GI50 is 3.97 µM (inactive) with SK-OV-3; 5.74 µM (inactive) in the test on HOP-92; 2.64 µM (inactive) in the test on COLO 205; 5.04 µM (inactive) in the test on SF-539; 4.02 µM with HCT-15; 3.53 µM (inactive) with SW-620. In addition, the GI50 was 6.11 µM (inactive) with NCI-H226, 9.64 µM (inactive) with SK-MEL-28, 2.33 µM (inactive) in the test on HL-60 and 7.06 µM (inactive) with MCF7.
With `COC(=O)c1ccccc1C1CN=NC12Cc1cccc(C)c1C2=O` (stereo not drawn), the GI50 with EKVX was 65.6 µM (inactive); with RXF 393, 11.5 µM (inactive); in the test on SF-268, 61.4 µM (inactive); with IGROV-1 it was 59.8 µM (inactive); with A549, 39.3 µM (inactive); in the test with NCI-H522, 27.3 µM (inactive). In addition, the GI50 in the test with SK-OV-3 is > 100 µM (inactive); in the test with HOP-92, 25.5 µM (inactive); in the test with COLO 205, > 10 µM (inactive); with SF-539, > 100 µM (inactive); in the test on HCT-15, 46.5 µM; in the test with SW-620, > 100 µM (inactive). Also, the GI50 in the test with NCI-H226 is 49.7 µM (inactive); in the test with SK-MEL-28 it was 68.2 µM (inactive); in the test with HL-60 it was 24.7 µM (inactive); in the test with MCF7, 43 µM (inactive).
Take `C=CCC1(Sc2ccccn2)Sc2ccc3ccccc3c2-c2c(ccc3ccccc23)S1`: the GI50 in the test with EKVX, with RXF 393, in the test with SF-268, with IGROV-1, with A549 and with NCI-H522 was > 100 µM (inactive) in each case. For the same molecule, the GI50 in the test on SK-OV-3 was > 100 µM (inactive); in the test on HOP-92, > 100 µM (inactive); in the test with COLO 205, > 100 µM (inactive); with SF-539, > 100 µM (inactive); in the test on HCT-15, above 100 µM; in the test on SW-620, > 100 µM (inactive). The GI50 in the test with NCI-H226, with SK-MEL-28, in the test with HL-60 and in the test on MCF7 was > 100 µM (inactive) each time.
For the molecule `O=C(NCCCNCCNC(=O)c1cc(-c2ccccc2)nc2ccccc12)c1cc(-c2ccccc2)nc2ccccc12`, the GI50 was 2.16 µM (inactive) in the test on EKVX; 2 µM (inactive) with RXF 393; 2.1 µM (inactive) in the test on SF-268; 1.95 µM (inactive) in the test on IGROV-1; 1.73 µM (inactive) in the test with A549; 1.75 µM (inactive) in the test with NCI-H522. Besides, the GI50 in the test on SK-OV-3 is 3.27 µM (inactive); in the test with HOP-92, 2.12 µM (inactive); in the test on COLO 205, 1.72 µM (inactive); in the test on SF-539, 1.82 µM (inactive); in the test with HCT-15, 1.52 µM; in the test on SW-620 it was 1.65 µM (inactive). Moreover, the GI50 in the test on NCI-H226 is 2.32 µM (inactive); with SK-MEL-28 it was 1.82 µM (inactive); in the test with HL-60, 1.59 µM (inactive); in the test with MCF7, 1.68 µM (inactive).
Take `CCOC(=O)c1c(Br)c(-c2ccc(OC)cc2)c(Br)n1C`: the GI50 with EKVX is 16.8 µM (inactive); in the test with RXF 393, 17.3 µM (inactive); in the test on SF-268, 55.5 µM (inactive); with IGROV-1, 22.2 µM (inactive); with A549, 21.3 µM (inactive); in the test with NCI-H522, 6.62 µM (inactive). Further, the GI50 in the test with SK-OV-3 was 18.5 µM (inactive); in the test with HOP-92 it was 8.17 µM (inactive); in the test on COLO 205, 27.6 µM (inactive); in the test on SF-539, 20.7 µM (inactive); in the test on HCT-15, 8.61 µM; in the test with SW-620 it was 9.46 µM (inactive). The GI50 is 22.2 µM (inactive) in the test on NCI-H226, 37.6 µM (inactive) with SK-MEL-28, 4.06 µM (inactive) with HL-60 and 8.39 µM (inactive) in the test with MCF7.
`CC1=NN2CCC(=O)N=C2S1`: the GI50 in the test on EKVX, in the test with RXF 393, in the test with SF-268, in the test on IGROV-1, with A549 and in the test on NCI-H522 was > 100 µM (inactive) each time. In addition, the GI50 with SK-OV-3 was > 100 µM (inactive); in the test on HOP-92, > 100 µM (inactive); in the test with COLO 205 it was > 100 µM (inactive); in the test with SF-539, > 100 µM (inactive); in the test on HCT-15, above 100 µM; in the test with SW-620, > 100 µM (inactive). The GI50 with NCI-H226, with SK-MEL-28, in the test with HL-60 and with MCF7 was > 100 µM (inactive) in each case.
As for `CC(C)NC(=O)OCCN=C1c2ccccc2C(Br)C(Br)c2ccccc21` (stereo not drawn), the GI50 is 9.06 µM (inactive) with EKVX; 2.87 µM (inactive) in the test on RXF 393; 14.4 µM (inactive) with SF-268; 2.66 µM (inactive) in the test on IGROV-1; 24.7 µM (inactive) in the test on A549; 1.68 µM (inactive) in the test with NCI-H522. In addition, the GI50 was 26.1 µM (inactive) with SK-OV-3; 5.3 µM (inactive) in the test with HOP-92; 5.13 µM (inactive) in the test on COLO 205; 4.02 µM (inactive) in the test on SF-539; 9.75 µM with HCT-15; 3.76 µM (inactive) in the test on SW-620. The GI50 in the test on NCI-H226 is 15.6 µM (inactive); with SK-MEL-28, 13.2 µM (inactive); with HL-60, 1.05 µM (active); with MCF7 it was 12.1 µM (inactive).
As to `CCOC(=O)Cn1c(C(F)(F)F)nc2nc(Cl)c(Cl)nc21`, the GI50 in the test with EKVX was 10.5 µM (inactive); with RXF 393 it was 27.8 µM (inactive); in the test on SF-268, 34 µM (inactive); with IGROV-1, 22.8 µM (inactive); in the test with A549, 47.8 µM (inactive); with NCI-H522, 20.8 µM (inactive). In addition, the GI50 with SK-OV-3 is 49.1 µM (inactive); with HOP-92, 24.7 µM (inactive); in the test on COLO 205 it was 40 µM (inactive); with SF-539, > 55.7 µM (inactive); in the test with HCT-15, 37.2 µM; in the test on SW-620, 54 µM (inactive). The GI50 with NCI-H226 was 50 µM (inactive); with SK-MEL-28, 48.9 µM (inactive); in the test on HL-60, 19.7 µM (inactive); with MCF7 it was 23.3 µM (inactive).
Regarding `CCC1([N+](=O)[O-])CC2C=CC1C2` (stereo not drawn), the GI50 with EKVX, in the test on RXF 393, in the test on SF-268, in the test with IGROV-1, in the test on A549 and in the test on NCI-H522 was > 100 µM (inactive) throughout. Besides, the GI50 in the test with SK-OV-3 was > 100 µM (inactive); in the test on HOP-92, 62.7 µM (inactive); with COLO 205, > 100 µM (inactive); in the test on SF-539, > 100 µM (inactive); in the test on HCT-15 it was above 100 µM; in the test on SW-620, > 100 µM (inactive). Further, the GI50 was > 100 µM (inactive) in the test on NCI-H226, > 100 µM (inactive) with SK-MEL-28, 49.9 µM (inactive) with HL-60 and > 100 µM (inactive) in the test on MCF7.
